Laboratory results published in patent US20200215099A1, “NON-ANTICOAGULANT SULFATED OR SULFONATED POLYSACCHARIDES” (Baxalta Incorporated, priority 2012, published 2020).

Assays:
[1] = Pharmacokinetics after intravenous administration; type: in vivo, CD rats
Experimental: The preparations were either unfractionated (average MW of 63 kD) or fractionated by a filter method (lots A and B with an average MW of 12 and 14 kD, respectively). The substances were prepared in a physiological saline solution and injected at 5 mL/kg. Each group consisted of three animals. Blood sample were collected in the presence of citrate (ratio 1:9) before dosing and 5, 30 min, 1, 3, 6, and 10 h after the dosing. Platelet-poor plasma was prepared by two centrifugation steps at 3000 rpm. The plasma samples were analyzed for by a liquid-chromatography-mass spectroscopy, a substance-specific method for S-6-CI.

[2] = test system: FVIII-inhibited guinea pigs; assay: Ex-vivo whole blood TEG in FVIII-inhibited guinea pigs; parameters: species or system guinea pig
Experimental: Male Dunkin Hartley guinea pigs were intravenously injected with a goat anti-human FVIII inhibitor plasma at a dose of 42 BU/kg (1.9 mL/kg) 45 min before sampling. After 40 min, NASP was intravenously administered to the animals at 0.05, 0.15, 0.45 or 1.35 mg/kg (N=5 per group). 300 U/kg FEIBA (Baxter, BioScience, Austria) served as a positive control and saline as a vehicle control. Shortly after the injection, the Vena cava was punctured and blood was collected in the presence of citrate (ratio 1:9) for whole blood TEG analysis. Measurements were performed using a thromboelastography (TEG) hemostasis analyzer 5000 (Haemonetics Corp, USA) at 37° C. Every blood sample was prepared by pre-warming 204 of a 0.2 M CaCl2) solution in a TEG cuvette at 37° C. adding 340 μL of blood, mixing, and then immediately starting the TEG recording. The measurement proceeded for at least 120 min. The TEG parameters of clotting time (R-time), rapidity of clot strengthening (angle) and maximum clot firmness (MA) were recorded. The primary endpoint R-time was plotted and the median value of the different dosing groups compared with each other.

FVIII-inhibited plasma = assay: Thrombin generation assay (CAT) in FVIII-inhibited plasma; type: biochemical, human
Experimental: The procoagulant activity of the sulfated polysaccharides was assessed by the Thrombin Generation Assay (TGA). The influence of each sulfated polysaccharide on thrombin generation was measured in duplicate via CAT in a Fluoroskan Ascent® reader (Thermo Labsystems, Helsinki, Finland; filters 390 nm excitation and 460 nm emission) following the slow cleavage of the fluorogenic substrate Z-Gly-GIy-Arg-AMC (Hemker H C. Pathophysiol Haemost Thromb (2003) 33(4):15). To each well of a 96 well microplate (Immulon 2HB, clear U-bottom; Thermo Electron) 80 μL of pre-warmed (37° C.) goat anti FVIII antibody treated human normal plasma pool was added. For triggering thrombin generation by tissue factor, 104 of PPP reagent containing a certain amount of recombinant human tissue factor (rTF) and phospholipid vesicles composed of phosphatidylserine, phosphatidylcholine and phosphatidylethanolamine (final concentration of 4 μM) (Thrombinoscope BV, Maastricht, The Netherlands) was added. For studying the procoagulant activity of sulfated polymers a final TF concentration of 1 pM was used to provide FVIII and TFPI sensitivity of the test system. Just prior to putting the plate into the pre-warmed (37° C.) reader, 10 µL of test or reference sample or calibrator compound was added. Thrombin generation was started by dispensing 204 of FluCa reagent (Thrombinoscope BV, Maastricht, The Netherlands) containing fluorogenic substrate and Hepes buffered CaCl2 (100 mM) into each well and fluorescence intensity was recorded at 37° C.
The parameters of the resulting thrombin generation curves were calculated using the Thrombinoscope™ software (Thrombinoscope BV, Maastricht, The Netherlands) and thrombin calibrator to correct for inner filter and substrate consumption effects (Hemker H C, Pathophysiol Haemost Thromb (2003) 33(4):15). With the thrombin calibrator as a reference, the molar concentration of thrombin in the test wells was calculated by the software. The thrombin amounts at the peak and peak times of each thrombin generation curve (peak thrombin, nM) were plotted against sulfated polysaccharide concentrations resulting in the procoagulant profile of these compounds. The thrombin generation assay results are illustrated in the figures appended hereto. From these plots half maximal effective concentrations (EC50) values are determined using a sigmoidal curve fit. The EC50 represents the concentration at which the half maximal thrombin peak is reached.

sulfated 6-carboxy-icodextrin
in vivo recovery (plasma concentration) ([1]; 5 min after i.v. dosing of 5 mg/kg): 28 to 44 µg/mL
half-life ([1]; i.v. 5 mg/kg, estimated from early time points): 30 to 45 min
median R-time (clotting time) ([2]; 0.15 and 0.45 mg/kg i.v., no clotting after 2 hours without treatment): 110 min
procoagulant effect, reduction in R-time (in words) ([2]; TEG five minutes after i.v. administration, NASP at 0.15 and 0.45 mg/kg): procoagulant effect superior to vehicle control
procoagulant activity (in words) (FVIII-inhibited plasma): good procoagulant activity in CAT assays at very low concentrations
procoagulant at (concentration) (FVIII-inhibited plasma; 37° C., 1 pM hTF, 4 μM PL): about 0.01 μg/mL
EC50 (FVIII-inhibited plasma; half maximal thrombin peak, 1 pM hTF, 4 μM PL): 0.07 µg/mL
